Results taken from PMC10215199 (Antioxidants, 2023).
Entries after “also recorded” stand apart in the source; their conditions may differ. Read-outs that look alike come from different tables or passages of the source.

How the values were obtained:
[1] = target: T1, acetylcholinesterase (AChE) (Mus musculus, UniProt P21836); experiment: Acetylcholinesterase inhibition assay (Ellman, mouse whole brain homogenate); type: biochemical; conditions: for IC50: ±SD
T1 construct: The supernatant obtained was used as a source of enzyme for; from tissue; host or cells: whole brain of male ICR mice, supernatant of the homogenate
T1 sequence (P21836 32-614): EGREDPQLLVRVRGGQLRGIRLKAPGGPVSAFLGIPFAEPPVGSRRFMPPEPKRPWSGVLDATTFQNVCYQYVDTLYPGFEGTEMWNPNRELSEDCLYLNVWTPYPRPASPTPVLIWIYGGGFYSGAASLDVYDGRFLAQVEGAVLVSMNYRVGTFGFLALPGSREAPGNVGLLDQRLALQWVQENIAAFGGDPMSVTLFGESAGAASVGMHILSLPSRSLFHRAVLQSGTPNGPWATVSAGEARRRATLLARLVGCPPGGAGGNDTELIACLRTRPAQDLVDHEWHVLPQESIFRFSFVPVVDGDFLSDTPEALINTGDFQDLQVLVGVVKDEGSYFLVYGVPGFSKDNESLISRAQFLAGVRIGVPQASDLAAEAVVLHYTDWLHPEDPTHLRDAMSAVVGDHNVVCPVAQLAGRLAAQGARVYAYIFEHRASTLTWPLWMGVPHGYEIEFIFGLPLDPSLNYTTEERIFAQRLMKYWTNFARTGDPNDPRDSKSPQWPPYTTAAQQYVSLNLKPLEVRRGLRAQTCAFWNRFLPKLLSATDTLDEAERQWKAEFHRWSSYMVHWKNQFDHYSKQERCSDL
Protocol: (§1) of compounds were determined as the mean ± S.E.M. in triplicate from the dose-response inhibition curves using SigmaPlot® 13.0.
2.2. In vitro acetylcholinesterase inhibition assay
(Eyela, Japan) containing 50 volumes of phosphate buffer (pH 8.0, 0.1 M), and then centrifuged at 14,000 rpm for 20 min at 4 °C. The supernatant obtained was used as a source of enzyme for the assay. Each drug was initially dissolved in dimethyl sulfoxide (DMSO) and diluted to various concentrations immediately before use. An aliquot of diluted drug solution was then mixed wit h 640 μL of phosphate buffer (0.1 M, pH 8.0), 25 μL of buffered Ellman’s reagent (10 mM 5,5′- dithio-bis(2-nitrobenzoic acid) and 15 mM sodium bicarbonate), and the enzyme source (100 μL) and pre-incubated at room temperature for 10 min. Then 5 μL of acetylthiocholine iodide solution (75 mM) was added to this mixture and mixed. Absorbance was measured at 410 nm after 10 min for the reaction adding 5 μL of acetylthiocholine iodide solution (75 mM) and to the reaction mixtures (OPTIZEN 2120UV, Mecasys Co. Ltd, Korea).

MAO-A = conditions: Figure 1, cited from earlier work
MAO-B = conditions: cited from earlier work
recombinant human MAO-A = target: T2, recombinant human MAO-A (Homo sapiens, UniProt P21397); experiment: Monoamine oxidase-A inhibition assay (Amplex red fluorescence); type: biochemical; conditions: for inhibition at 1 µM: read-out: % Inhibition MAO-A; for inhibition at 100 µM: read-out: MAO-A % Inhibition
T2 sequence (P21397 1-527): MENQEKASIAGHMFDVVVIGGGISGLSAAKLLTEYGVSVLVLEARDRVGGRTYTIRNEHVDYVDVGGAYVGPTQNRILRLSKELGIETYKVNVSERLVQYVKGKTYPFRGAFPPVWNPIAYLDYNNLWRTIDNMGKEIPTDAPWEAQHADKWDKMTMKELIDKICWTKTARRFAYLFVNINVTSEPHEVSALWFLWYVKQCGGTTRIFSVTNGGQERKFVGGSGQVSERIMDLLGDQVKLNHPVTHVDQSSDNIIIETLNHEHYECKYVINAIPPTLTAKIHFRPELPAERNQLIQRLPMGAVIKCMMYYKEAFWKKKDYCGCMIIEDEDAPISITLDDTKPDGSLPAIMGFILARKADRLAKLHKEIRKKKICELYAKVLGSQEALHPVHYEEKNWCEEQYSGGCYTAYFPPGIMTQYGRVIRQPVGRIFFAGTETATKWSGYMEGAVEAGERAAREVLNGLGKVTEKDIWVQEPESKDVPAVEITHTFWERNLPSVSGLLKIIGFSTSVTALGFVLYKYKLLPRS
Protocol: Two isoforms of MAOs, namely MAO-A and MAO-B, are expressed in CNS, showing different substrate specificity. Consequently, different pharmacological effects can be elicited depending on the inhibited MAO isoform. Therefore, the prepared O^6-aminoalkyl-hispidol analogs were evaluated against both recombinant human MAO-A and MAO-B isoforms following the well-established spectrophotometric method.
2. Biological evaluations
2.1. In vitro assay of human monoamine oxidases inhibition
The MAO activity was quantified by measuring fluorescence intensity evoked by Amplex red reaction in which Amplex red reacts with hydrogen peroxide from the MAO reaction to produce highly fluorescent resorufin. The test compound in DMSO (final concentration: 1 nM – 10 μM or 10 nM – 100 μM ) and hMAO enzyme (Sigma Aldrich, St. Louis, MO, USA) in 50 mM sodium phosphate buffer (pH 7.4, final protein amount: ~1.25 μg of MAO-A/well and 2.5 μg of MAO-B/well) were loaded on 96-well black plate and incubated for 15 min at 37 °C. Then working solution of 200 μM Amplex Red (Cayman, Ann Arbor, MI, USA), 1 U/mL horseradish peroxidase (Sigma-Aldrich) and 1 mM substrate (p-tyramine for MAO-A, benzylamine for MAO-B, Sigma-Aldrich) in 50 mM sodium phosphate buffer (pH 7.4) was added and incubated for 20 min at 37 °C in the dark. The fluorescence was measured using a microplate reader (SpectraMax®i3, Molecular Device, San Jose, CA, USA) with an excitation at 545 nm and an emission at 590 nm. […]
as §1

recombinant human MAO-B = target: T3, recombinant human MAO-B (Homo sapiens, UniProt P27338); experiment: biochemical; conditions: for inhibition at 10 µM: single dose concentration of 10 µM; for inhibition at 10 µM / IC50: ±sem; for IC50: five doses
T3 construct: purchased Sigma Aldrich
T3 sequence (P27338 1-520): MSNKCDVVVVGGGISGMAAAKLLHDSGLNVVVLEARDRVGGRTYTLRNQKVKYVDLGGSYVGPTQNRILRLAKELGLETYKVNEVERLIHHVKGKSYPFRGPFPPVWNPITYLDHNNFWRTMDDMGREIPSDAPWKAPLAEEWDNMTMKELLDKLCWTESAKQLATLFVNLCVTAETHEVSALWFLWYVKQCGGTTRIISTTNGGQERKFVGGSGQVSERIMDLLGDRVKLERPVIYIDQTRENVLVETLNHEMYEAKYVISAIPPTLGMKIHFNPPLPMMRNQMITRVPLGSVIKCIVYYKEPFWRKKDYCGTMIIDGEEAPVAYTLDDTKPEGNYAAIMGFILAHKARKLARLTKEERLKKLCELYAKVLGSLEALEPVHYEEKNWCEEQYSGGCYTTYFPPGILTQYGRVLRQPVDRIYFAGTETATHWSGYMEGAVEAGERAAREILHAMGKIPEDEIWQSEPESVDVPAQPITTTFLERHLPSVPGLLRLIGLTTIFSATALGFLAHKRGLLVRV

[2] = test system: PGE2 production in LPS-induced BV2 cells; experiment: Inhibition of LPS-induced production of PGE2 in BV2 cells; type: cell-based, murine; conditions: LPS 500 ng/ml
Protocol: indicated concentrations of test compounds for 24 h. After replacing the culture media with fresh
2.3.2. Inhibition of LPS-induced production of PGE2
The concentrations of PGE2 in
Sciences, NY, USA) according to the manufacturer’s instructions. […]

[3] = test system: scopolamine-induced cognitive deficits; experiment: Passive avoidance test, scopolamine-induced cognitive deficits; type: in vivo; conditions: scopolamine 1 mg/kg i.p., mice
[4] = test system: immobility in forced swim test; experiment: Forced swim test, acute treatment; conditions: 1 and 10 mg/kg p.o.; for Immobility time in forced-swim test: versus control group
microglial BV2 cells = experiment: BV2 cell viability (WST-1 assay); conditions: up to 10 micromolar, in presence of LPS, 24 h
Protocol: 2.3. In vitro cellular evaluations
2.3.1. Cell culture and viability determination
Murine BV2 microglial cells obtained from the Korean Cell Line Bank (Seoul, Republic of Korea) were cultured in DMEM with 10% FBS, 100 U/ml penicillin, and 100 μg/ml streptomycin at 37°C in a humidified 5% CO2 atmosphere. Cell viability and toxicity were determined by the WST-1 assay (Roche, Mannheim, Germany). Briefly, BV2 cells in sterile plates were incubated with the […]

AChE = test system: AChE; set-up: method as in PMID 31891098; conditions: chromone-based compound 1, Figure 1; cited from earlier work
[5] = 10 mg/kg p.o., donepezil 5 mg/kg p.o. as comparator

Compound	IC50 [1] [nM]	inhibition at 10 µM (recombinant human MAO-B) [%]	IC50 (recombinant human MAO-B) [nM]	LPS-induced PGE2 production in BV2 cells ([2]; 10 micromolar dose)	LPS-induced PGE2 production in BV2 cells ([2]; five micromolar concentration)	Latency in the retention experiment, passive avoidance ([3]; 1 mg/kg p.o.)	Latency in the retention experiment, passive avoidance [3, 5]	Antidepressant-like effect in forced-swim test [4]	Immobility time in forced-swim test [4]	other results
O=C1/C(=C/c2ccc(O)cc2)Oc2cc(O)ccc21 [Hispidol, hispidol]	202000									IC50 (MAO-A; reported value for hispidol): 260 nM; IC50 (MAO-B; reported value for hispidol): 2450 nM
CCN(CC)CCOc1ccc2c(c1)O/C(=C\c1ccccc1OC)C2=O [Compound 3aa]	2670 ± 50	91.49 ± 0.27	960 ± 4	returned to almost normal levels	attrition of the inhibitory effect	did not show significant amelioration of cognitive deficits	did not show significant amelioration of cognitive deficits	did not show antidepressant-like effects	significantly increased immobility time	inhibition at 1 µM (recombinant human MAO-A; single dose concentration of 1 µM, ±sem, NI = no measured inhibition): < 0%; inhibition at 100 µM (recombinant human MAO-A; single dose concentration of 100 µM, ±sem): 27.2 ± 2.94%; IC50 (recombinant human MAO-A; ±sem, read-out: MAO-A IC50): > 100000 nM; MAO-B Selectivity Index (recombinant human MAO-B; calculated from MAO-A and MAO-B IC50 values): >104; AChE potency relative to the reference galantamine ([1]; ratio of potency): ~1.8 times
COc1ccc(/C=C2\Oc3cc(O)ccc3C2=O)c(OC)c1OC [Hispidol Analog]										IC50 (MAO-A; ring-B methoxylated hispidol analog): > 100000 nM; IC50 (MAO-B; ring-B methoxylated hispidol analog, Figure 1): 170 nM
COc1cc(/C=C2\Oc3cc(OCCN4CCCC4)ccc3C2=O)cc(OC)c1OC [Compound 3bc]		99.3 ± 0.38	340 ± 2	returned to almost normal levels	normal PGE2 production level	significantly enhanced latency	significantly enhanced latency; also recorded: as effective as donepezil	did not show antidepressant-like effects	significantly increased immobility time	IC50 (recombinant human MAO-A): > 100000 nM; inhibition at 1 µM (recombinant human MAO-A): < 0%; inhibition at 100 µM (recombinant human MAO-A): 21.4 ± 3.51%; Cellular viability of microglial BV2 cells (microglial BV2 cells): absence of cytotoxic activity
O=c1ccoc2ccc(OCCCN3CCCCC3)cc12 [Compound 1]										IC50 (MAO-B; chromone-based compound 1, Figure 1): 7200 nM; IC50 (AChE): 5580 nM
